In brackets after ≈: the same amount, converted by molar mass. Several values for one entry are separate records, joined by “and”; a condition that tells them apart may be missing. Equal values may be shown once.
What was measured:
Format in all cases: cell-based
[1] = tested on: E. coli ∆tolC JW5503-1; assay: MIC, E. coli ∆tolC; conditions: Escherichia coli, read-out: MIC tolC
Method in brief: (§1)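 Growth inhibition was read as absorbance at 600 nm after exposing 3–7 × 10^5 CFU/ml cultures in M9 medium to final compound concentrations of 40 µg/mL to 0.3 µg/mL. For killing kinetics, ~10^7 CFU/ml cells were treated over 0 to 8 h and survivors counted.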

[2] = tested on: E. coli ∆acrB JW0451-2; assay: MIC, E. coli ∆acrB; design: MIC ∆acrB: unit not given beside the values
Method in brief: as §1

[3] = target: T1, AcrB efflux pump in E. coli BW25113 (Escherichia coli, UniProt P31224); assay: Nile red efflux assay (whole-cell competition)
T1 construct: endogenous in cells; host or cells: E. coli BW25113 (wild type)
Description: The Nile red assay is adopted from Bohnert et al.[18]. An overnight culture of E. coli strain BW25113 is harvested and is resuspended in 20 mM potassium phosphate buffer (pH 7.0) containing 1 mM MgCl2 (PPB). The cells are adjusted to an A660 of 1.0 in PPB and aliquoted into glass tubes (2 ml each). Carbonylcyanide-m-chlorophenylhydrazone (CCCP; a protonophore that uncouples the electron transport chain and thus inhibits AcrB mediated efflux) is added to a final concentration of 10 µM (5 mM stock solution in 50% DMSO) and incubated for 15 minutes before adding the potential competitor at desired concentrations. Nile red is then added (stock solution of 5 mM in 10% dimethyl formamide-90% ethanol [vol/vol]) to a final concentration of 5 µM. The cell suspension is incubated at room temperature on a shaker for 3 hours. The cells are harvested and resuspended in 2 ml PPB in the presence of the competitor. The cell suspension is aliquoted in a fluorimeter cuvette, to which, 100 µl of 1 M Glucose is added to activate the electron transport chain. The rate of efflux is measured by Tefflux50, it is the time taken for 50% of Nile red to be effluxed out in presence of the compounds. The fluorescence is measured (Excitation 552 nm, Emission 636 nm) for 200 seconds.

[4] = tested on: E. coli clinical isolates; assay: MIC on panel of E. coli clinical isolates
[5] = tested on: ATCC25922; assay: MIC on E. coli ATCC25922; conditions: strain ATCC25922
Description: The inoculum used for all the experiments is derived from a single seed lot that is maintained as glycerol stocks at −80 °C and are sub cultured on LB plate for isolated colonies. Single colony of each strain is grown in M9 medium. All test compound stocks and dilutions are prepared in DMSO. Serial two-fold dilutions of compounds are prepared separately, with the concentrations ranging from 2 mg/mL to 0.015 mg/mL. To 150 µl (3–7 × 10^5 CFU/ml) of bacterial culture in 96 well microtitre plates, 3 μL compound from each of the dilutions is added to respective wells to obtain final concentrations ranging from 40 µg/mL to 0.3 µg/mL of the test compounds. Media control, culture control and appropriate reference drug controls are included. […] Growth is monitored by checking absorbance at 600 nm (A600). […] The samples from MIC and above concentrations are plated for MBC (Minimum Bactericidal Concentration). The samples are diluted 1:10 and plated on LB agar plates. […] The killing kinetics is determined by enumerating survivors at various time points following compound exposure. E. coli cells (~10^7 CFU/ml; A600 of 0.1) are treated with various concentrations (40 µg/mL to 0.3 µg/mL) of compounds in a 96-well microtitre plate. At various time intervals (0 to 8 h), 30 μl volumes of treated cultures are serially diluted and plated on LB agar plates. […] Data is expressed as the log10 CFU for each drug treatment.

T1 sequence (P0AE06 25-397): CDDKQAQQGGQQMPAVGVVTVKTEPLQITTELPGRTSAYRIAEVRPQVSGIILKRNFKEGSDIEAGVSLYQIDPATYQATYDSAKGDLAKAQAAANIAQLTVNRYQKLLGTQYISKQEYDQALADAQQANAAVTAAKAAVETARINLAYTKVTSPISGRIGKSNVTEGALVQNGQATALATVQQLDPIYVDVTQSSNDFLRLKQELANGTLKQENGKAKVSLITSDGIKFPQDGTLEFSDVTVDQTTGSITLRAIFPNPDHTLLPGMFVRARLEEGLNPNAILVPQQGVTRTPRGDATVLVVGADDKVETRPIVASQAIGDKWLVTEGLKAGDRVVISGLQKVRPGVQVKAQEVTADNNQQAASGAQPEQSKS
T1 sequence (P31224 whole entry): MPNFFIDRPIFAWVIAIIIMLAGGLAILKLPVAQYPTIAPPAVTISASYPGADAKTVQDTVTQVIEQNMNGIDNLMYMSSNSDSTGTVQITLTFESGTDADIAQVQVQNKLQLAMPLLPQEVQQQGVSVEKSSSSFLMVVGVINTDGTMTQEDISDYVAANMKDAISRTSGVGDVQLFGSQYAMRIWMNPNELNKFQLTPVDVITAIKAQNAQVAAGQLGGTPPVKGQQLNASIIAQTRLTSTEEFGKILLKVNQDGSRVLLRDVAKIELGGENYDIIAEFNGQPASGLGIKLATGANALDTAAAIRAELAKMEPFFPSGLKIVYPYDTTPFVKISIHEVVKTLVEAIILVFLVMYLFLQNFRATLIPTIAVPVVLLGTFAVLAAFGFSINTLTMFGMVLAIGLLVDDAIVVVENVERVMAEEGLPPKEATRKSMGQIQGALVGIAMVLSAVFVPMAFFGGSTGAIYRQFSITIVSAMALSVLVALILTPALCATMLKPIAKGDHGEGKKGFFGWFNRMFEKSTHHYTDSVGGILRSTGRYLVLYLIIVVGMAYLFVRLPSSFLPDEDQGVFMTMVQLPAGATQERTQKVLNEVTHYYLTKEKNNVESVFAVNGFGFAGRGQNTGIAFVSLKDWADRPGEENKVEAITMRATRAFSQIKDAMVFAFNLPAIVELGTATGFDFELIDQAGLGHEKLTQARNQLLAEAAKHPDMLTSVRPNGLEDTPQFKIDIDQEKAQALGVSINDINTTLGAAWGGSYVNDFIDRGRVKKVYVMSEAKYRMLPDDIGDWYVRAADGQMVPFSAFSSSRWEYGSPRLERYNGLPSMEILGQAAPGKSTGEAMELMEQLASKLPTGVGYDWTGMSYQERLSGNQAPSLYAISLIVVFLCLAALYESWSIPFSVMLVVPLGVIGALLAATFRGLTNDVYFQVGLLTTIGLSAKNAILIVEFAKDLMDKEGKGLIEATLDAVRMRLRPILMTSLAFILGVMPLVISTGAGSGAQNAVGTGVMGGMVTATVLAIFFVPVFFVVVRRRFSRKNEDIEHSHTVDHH
T1 sequence (P02930 23-493, further chain): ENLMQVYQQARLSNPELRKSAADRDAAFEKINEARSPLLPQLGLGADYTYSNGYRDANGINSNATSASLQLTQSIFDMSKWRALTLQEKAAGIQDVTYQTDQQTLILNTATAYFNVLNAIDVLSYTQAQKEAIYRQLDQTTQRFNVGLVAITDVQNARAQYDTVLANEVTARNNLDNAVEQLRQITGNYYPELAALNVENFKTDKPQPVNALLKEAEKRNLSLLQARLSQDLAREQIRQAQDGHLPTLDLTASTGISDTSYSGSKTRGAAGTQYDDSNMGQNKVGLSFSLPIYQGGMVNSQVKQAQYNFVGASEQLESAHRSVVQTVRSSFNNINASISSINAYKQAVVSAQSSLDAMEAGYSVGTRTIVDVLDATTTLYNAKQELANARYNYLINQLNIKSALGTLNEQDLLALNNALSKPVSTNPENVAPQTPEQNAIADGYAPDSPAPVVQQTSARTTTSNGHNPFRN

## O=C(Nc1nc(-c2ccc(F)cc2F)cs1)c1ccc([N+](=O)[O-])s1 [compound 12, N-(4-(2,4-difluorophenyl)thiazol-2-yl)-5-nitrothiophene-2-carboxamide]
[1]
  MIC: 0.15 µg/mL (≈ 0.408 µM)
[2]; Escherichia coli, read-out: MIC acrB
  MIC: 0.3 µg/mL (≈ 0.817 µM)
[2]; Table S11
  MIC ∆acrB: 0.3
[3]; 1µM compound, time for 50% of Nile red to be effluxed, read for 200 seconds
  Tefflux50: 66.41 s
[3]; 9µM compound
  Tefflux50: 67.52 s
[3]; 27µM compound
  Tefflux50: 67.98 s
[3]; 81µM compound
  Tefflux50: 68.06 s
[3]; 100µM compound
  Tefflux50: 68.17 s
[3]; 200µM compound
  Tefflux50: 68.34 s
[3]; 400µM compound
  Tefflux50: 68 s and 68.25 s
[3]; E. coli BW25113
  Concentration of compound required for complete inhibition of Nile red efflux (Tefflux50 >200 seconds): > 400 µM
[4]; 75 E.coli clinical isolates
  MIC Range: 0.06 to 40 µg/mL
[4]; Escherichia coli, 75 E.coli clinical isolates, 50% clinical isolates
  MIC50: 2.5 µg/mL (≈ 6.81 µM)
[4]; Escherichia coli, 75 E.coli clinical isolates, 90% clinical isolates
  MIC90: 10 µg/mL (≈ 27.2 µM)
[4]; strain SEC001
  MIC: 4 µg/mL (≈ 10.9 µM)
[4]; strain SEC002
  MIC: 4 µg/mL (≈ 10.9 µM)
[4]; strain SEC003
  MIC: 4 µg/mL (≈ 10.9 µM)
[4]; strain SEC004
  MIC: 32 µg/mL (≈ 87.1 µM)
[4]; strain SEC005
  MIC: 4 µg/mL (≈ 10.9 µM)
[4]; strain SEC006
  MIC: 4 µg/mL (≈ 10.9 µM)
[4]; strain SEC007
  MIC: 2 µg/mL (≈ 5.44 µM)
[4]; strain SEC008
  MIC: 32 µg/mL (≈ 87.1 µM)
[4]; strain SEC011
  MIC: 2 µg/mL (≈ 5.44 µM)
[4]; strain SEC012
  MIC: 1 µg/mL (≈ 2.72 µM)
[4]; strain SEC013
  MIC: 32 µg/mL (≈ 87.1 µM)
[4]; strain SEC014
  MIC: 2 µg/mL (≈ 5.44 µM)
[4]; strain SEC015
  MIC: 32 µg/mL (≈ 87.1 µM)
[4]; strain SEC016
  MIC: 2 µg/mL (≈ 5.44 µM)
[4]; strain SEC017
  MIC: 0.06 µg/mL (≈ 0.163 µM)
[4]; strain SEC018
  MIC: 2 µg/mL (≈ 5.44 µM)
[4]; strain SEC019
  MIC: 2 µg/mL (≈ 5.44 µM)
[4]; strain SEC020
  MIC: 32 µg/mL (≈ 87.1 µM)
[4]; strain SEC021
  MIC: 1 µg/mL (≈ 2.72 µM)
[4]; strain SEC022
  MIC: 2 µg/mL (≈ 5.44 µM)
[4]; strain SEC023
  MIC: 32 µg/mL (≈ 87.1 µM)
[4]; strain SEC024
  MIC: 2 µg/mL (≈ 5.44 µM)
[4]; strain SEC025
  MIC: 2 µg/mL (≈ 5.44 µM)
[4]; strain SEC026
  MIC: 2 µg/mL (≈ 5.44 µM)
[4]; strain SEC028
  MIC: 1 µg/mL (≈ 2.72 µM)
[4]; strain SEC029
  MIC: 2 µg/mL (≈ 5.44 µM)
[4]; strain SEC031
  MIC: 2 µg/mL (≈ 5.44 µM)
[4]; strain SEC032
  MIC: 4 µg/mL (≈ 10.9 µM)
[4]; strain SEC033
  MIC: 2 µg/mL (≈ 5.44 µM)
[4]; strain SEC034
  MIC: 2 µg/mL (≈ 5.44 µM)
[4]; strain SEC035
  MIC: 2 µg/mL (≈ 5.44 µM)
[4]; strain SEC036
  MIC: 32 µg/mL (≈ 87.1 µM)
[4]; strain SEC037
  MIC: 1 µg/mL (≈ 2.72 µM)
[4]; strain SEC038
  MIC: 2 µg/mL (≈ 5.44 µM)
[4]; strain SEC039
  MIC: 2 µg/mL (≈ 5.44 µM)
[4]; strain SEC040
  MIC: 2 µg/mL (≈ 5.44 µM)
[4]; strain SEC041
  MIC: 2 µg/mL (≈ 5.44 µM)
[4]; strain SEC042
  MIC: 4 µg/mL (≈ 10.9 µM)
[4]; strain SEC043
  MIC: 2 µg/mL (≈ 5.44 µM)
[4]; strain SEC044
  MIC: 32 µg/mL (≈ 87.1 µM)
[4]; strain SEC045
  MIC: 2 µg/mL (≈ 5.44 µM)
[4]; strain SEC046
  MIC: 2 µg/mL (≈ 5.44 µM)
[4]; strain SEC047
  MIC: 2 µg/mL (≈ 5.44 µM)
[4]; strain SEC048
  MIC: 32 µg/mL (≈ 87.1 µM)
[4]; strain SEC049
  MIC: 32 µg/mL (≈ 87.1 µM)
[4]; strain SEC050
  MIC: 4 µg/mL (≈ 10.9 µM)
[4]; strain SEC051
  MIC: 4 µg/mL (≈ 10.9 µM)
[4]; strain SEC052
  MIC: 1 µg/mL (≈ 2.72 µM)
[4]; strain SEC053
  MIC: 2 µg/mL (≈ 5.44 µM)
[4]; strain SEC054
  MIC: 2 µg/mL (≈ 5.44 µM)
[4]; strain SEC055
  MIC: 2 µg/mL (≈ 5.44 µM)
[4]; strain SEC057
  MIC: 4 µg/mL (≈ 10.9 µM)
[4]; strain SEC058
  MIC: 4 µg/mL (≈ 10.9 µM)
[4]; strain SEC059
  MIC: 2 µg/mL (≈ 5.44 µM)
[4]; strain SEC060
  MIC: 2 µg/mL (≈ 5.44 µM)
[4]; strain SEC061
  MIC: 2 µg/mL (≈ 5.44 µM)
[4]; strain SEC062
  MIC: 1 µg/mL (≈ 2.72 µM)
[4]; strain SEC063
  MIC: 2 µg/mL (≈ 5.44 µM)
[4]; strain SEC064
  MIC: 4 µg/mL (≈ 10.9 µM)
[4]; strain SEC065
  MIC: 2 µg/mL (≈ 5.44 µM)
[4]; strain SEC067
  MIC: 2 µg/mL (≈ 5.44 µM)
[4]; strain SEC068
  MIC: 4 µg/mL (≈ 10.9 µM)
[4]; strain SEC069
  MIC: 4 µg/mL (≈ 10.9 µM)
[4]; strain SEC070
  MIC: 4 µg/mL (≈ 10.9 µM)
[4]; strain SEC071
  MIC: 2 µg/mL (≈ 5.44 µM)
[4]; strain SEC072
  MIC: 2 µg/mL (≈ 5.44 µM)
[4]; strain SEC073
  MIC: 4 µg/mL (≈ 10.9 µM)
[4]; strain SEC074
  MIC: 2 µg/mL (≈ 5.44 µM)
[4]; strain SEC075
  MIC: 4 µg/mL (≈ 10.9 µM)
[4]; strain SEC076
  MIC: 2 µg/mL (≈ 5.44 µM)
[4]; strain SEC077
  MIC: 2 µg/mL (≈ 5.44 µM)
[4]; strain SEC078
  MIC: 8 µg/mL (≈ 21.8 µM)
[4]; strain SEC079
  MIC: 4 µg/mL (≈ 10.9 µM)
[4]; strain SEC080
  MIC: 4 µg/mL (≈ 10.9 µM)
[5]
  MIC: 1 µg/mL (≈ 2.72 µM)

— publication PMC5940854, “Nitrothiophene carboxamides, a novel narrow spectrum antibacterial series: Mechanism of action and Efficacy” (Scientific Reports, 2018)
